Results reported in PMC10088252.
Read-outs that look alike come from different tables or passages of the source.

Method: Dose adjustment was allowed according to the severity of toxicity [Supplementary Table 1].
The primary endpoints were safety, ORR and DCR assessed by investigators. […] AEs referred to treatment-emergent adverse events (TEAEs) and TRAEs were assessed by investigators. Serious adverse events (SAEs) referred to AEs meeting at least one of the following criteria: event leading to death; life-threatening event; event requiring hospitalization or extension of hospital stay; event leading to persistent or evident disability or dysfunction; event leading to congenital malformation or birth defect or event which might lead to injury or that need medical treatment to avoid the above mentioned important medical events.

O=C(Nc1ccc(Oc2ccnc3c2CCN3)c(F)c1)c1c[nH]cc(-c2ccc(F)cc2)c1=O
1 (25.0) n (%): TRAE Elevated GGT, any grade (400 mg BID (n=4)) | TRAE Elevated LDH, any grade (400 mg BID (n=4)) | TRAE Elevated alpha-HBDH, any grade (400 mg BID (n=4)) | TRAE Elevated bilirubin, any grade (400 mg BID (n=4)) | TRAE Elevated blood creatinine, any grade (400 mg BID (n=4)) | TRAE Hyperlipidaemia, any grade (400 mg BID (n=4)) | TRAE Hypertension, any grade (400 mg BID (n=4)) | TRAE Leukopenia, any grade (400 mg BID (n=4)) | TRAE Thrombocytopenia, grade 3-4 (400 mg BID (n=4)) | TRAE Vomiting, any grade (400 mg BID (n=4))
5 (41.7) n (%): TRAE Constipation, any grade (450 mg QD (n=12)) | TRAE Elevated ALT, any grade (450 mg QD (n=12)) | TRAE Elevated AST, any grade (450 mg QD (n=12))
0 n (%): TRAE Dyskinesia, any grade (400 mg BID (n=4)) | TRAE Dyskinesia, grade 3-4 (400 mg BID (n=4)) | TRAE Dysphonia, any grade (400 mg BID (n=4)) | TRAE Dysphonia, grade 3-4 (400 mg BID (n=4)) | TRAE Dyspnoea, any grade (400 mg BID (n=4)) | TRAE Dyspnoea, grade 3-4 (400 mg BID (n=4)) | TRAE Electrocardiogram QT prolonged, any grade (400 mg BID (n=4)) | TRAE Electrocardiogram QT prolonged, grade 3-4 (400 mg BID (n=4)) | TRAE Elevated ALT, grade 3-4 (400 mg BID (n=4)) | TRAE Elevated AST, grade 3-4 (400 mg BID (n=4)) | TRAE Elevated D dimer, any grade (400 mg BID (n=4)) | TRAE Elevated D dimer, grade 3-4 (400 mg BID (n=4)) | TRAE Elevated GGT, grade 3-4 (400 mg BID (n=4)) | TRAE Elevated LDH, grade 3-4 (400 mg BID (n=4)) | TRAE Elevated alpha-HBDH, grade 3-4 (400 mg BID (n=4)) | TRAE Elevated bilirubin, grade 3-4 (400 mg BID (n=4)) | TRAE Elevated blood creatinine, grade 3-4 (400 mg BID (n=4)) | TRAE Elevated creatine phosphokinase, grade 3-4 (400 mg BID (n=4)) | TRAE Elevated serum urea, any grade (400 mg BID (n=4)) | TRAE Elevated serum urea, grade 3-4 (400 mg BID (n=4)) | TRAE Elevated troponin, any grade (400 mg BID (n=4)) | TRAE Elevated troponin, grade 3-4 (400 mg BID (n=4)) | TRAE Genital rash, any grade (400 mg BID (n=4)) | TRAE Genital rash, grade 3-4 (400 mg BID (n=4)) | TRAE Haematuria, any grade (400 mg BID (n=4)) | TRAE Haematuria, grade 3-4 (400 mg BID (n=4)) | TRAE Headache, any grade (400 mg BID (n=4)) | TRAE Headache, grade 3-4 (400 mg BID (n=4)) | TRAE Hyperhidrosis, any grade (400 mg BID (n=4)) | TRAE Hyperhidrosis, grade 3-4 (400 mg BID (n=4)) | TRAE Hyperlipidaemia, grade 3-4 (400 mg BID (n=4)) | TRAE Hypertension, grade 3-4 (400 mg BID (n=4)) | TRAE Hypoaesthesia oral, any grade (400 mg BID (n=4)) | TRAE Hypoaesthesia oral, grade 3-4 (400 mg BID (n=4)) | TRAE Hypocalcaemia, any grade (400 mg BID (n=4)) | TRAE Hypocalcaemia, grade 3-4 (400 mg BID (n=4)) | TRAE Hypotension, any grade (400 mg BID (n=4)) | TRAE Hypotension, grade 3-4 (400 mg BID (n=4)) | TRAE Insomnia, any grade (400 mg BID (n=4)) | TRAE Insomnia, grade 3-4 (400 mg BID (n=4)) | TRAE Leukopenia, grade 3-4 (400 mg BID (n=4)) | TRAE Nausea, any grade (400 mg BID (n=4)) | TRAE Nausea, grade 3-4 (400 mg BID (n=4)) | TRAE Neuritis, any grade (400 mg BID (n=4)) | TRAE Neuritis, grade 3-4 (400 mg BID (n=4)) | TRAE Occult blood, any grade (400 mg BID (n=4)) | TRAE Occult blood, grade 3-4 (400 mg BID (n=4)) | TRAE Oedema peripheral, any grade (400 mg BID (n=4)) | TRAE Oedema peripheral, grade 3-4 (400 mg BID (n=4)) | TRAE Onycholysis, any grade (400 mg BID (n=4)) | TRAE Onycholysis, grade 3-4 (400 mg BID (n=4)) | TRAE Oropharyngeal pain, any grade (400 mg BID (n=4)) | TRAE Oropharyngeal pain, grade 3-4 (400 mg BID (n=4)) | TRAE Paraesthesia, any grade (400 mg BID (n=4)) | TRAE Paraesthesia, grade 3-4 (400 mg BID (n=4)) | TRAE Proteinuria, any grade (400 mg BID (n=4)) | TRAE Proteinuria, grade 3-4 (400 mg BID (n=4)) | TRAE Pruritus, any grade (400 mg BID (n=4)) | TRAE Pruritus, grade 3-4 (400 mg BID (n=4)) | TRAE Rash maculo-papular, any grade (400 mg BID (n=4)) | TRAE Rash maculo-papular, grade 3-4 (400 mg BID (n=4)) | TRAE Sinus tachycardia, any grade (400 mg BID (n=4)) | TRAE Sinus tachycardia, grade 3-4 (400 mg BID (n=4)) | TRAE Skin fissures, any grade (400 mg BID (n=4)) | TRAE Skin fissures, grade 3-4 (400 mg BID (n=4)) | TRAE Supraventricular extrasystoles, any grade (400 mg BID (n=4)) | TRAE Supraventricular extrasystoles, grade 3-4 (400 mg BID (n=4)) | TRAE Upper respiratory tract infection, any grade (400 mg BID (n=4)) | TRAE Upper respiratory tract infection, grade 3-4 (400 mg BID (n=4)) | TRAE Urinary retention, any grade (400 mg BID (n=4)) | TRAE Urinary retention, grade 3-4 (400 mg BID (n=4)) | TRAE Urinary tract infection, any grade (400 mg BID (n=4)) | TRAE Urinary tract infection, grade 3-4 (400 mg BID (n=4)) | TRAE Ventricular arrhythmia, any grade (400 mg BID (n=4)) | TRAE Ventricular arrhythmia, grade 3-4 (400 mg BID (n=4)) | TRAE Ventricular extrasystoles, any grade (400 mg BID (n=4)) | TRAE Ventricular extrasystoles, grade 3-4 (400 mg BID (n=4)) | TRAE Vomiting, grade 3-4 (400 mg BID (n=4)) | TRAE Weight loss, any grade (400 mg BID (n=4)) | TRAE Weight loss, grade 3-4 (400 mg BID (n=4)) | TRAE Accessory nerve disorder, any grade (450 mg QD (n=12)) | TRAE Accessory nerve disorder, grade 3-4 (450 mg QD (n=12)) | TRAE Activated partial thromboplastin time prolonged, grade 3-4 (450 mg QD (n=12)) | TRAE Anaesthesia oral, any grade (450 mg QD (n=12)) | TRAE Anaesthesia oral, grade 3-4 (450 mg QD (n=12)) | TRAE Arrhythmia, any grade (450 mg QD (n=12)) | TRAE Arrhythmia, grade 3-4 (450 mg QD (n=12)) | TRAE Arthralgia, grade 3-4 (450 mg QD (n=12)) | TRAE Asthenia, grade 3-4 (450 mg QD (n=12)) | TRAE Blister, grade 3-4 (450 mg QD (n=12)) | TRAE Chest discomfort, any grade (450 mg QD (n=12)) | TRAE Chest discomfort, grade 3-4 (450 mg QD (n=12)) | TRAE Chronic kidney disease, grade 3-4 (450 mg QD (n=12)) | TRAE Constipation, grade 3-4 (450 mg QD (n=12)) | TRAE Cough, any grade (450 mg QD (n=12)) | TRAE Cough, grade 3-4 (450 mg QD (n=12)) | TRAE Decreased Ccr, grade 3-4 (450 mg QD (n=12)) | TRAE Decreased appetite, grade 3-4 (450 mg QD (n=12)) | TRAE Diarrhoea, grade 3-4 (450 mg QD (n=12)) | TRAE Dizziness, any grade (450 mg QD (n=12)) | TRAE Dizziness, grade 3-4 (450 mg QD (n=12)) | TRAE Dry mouth, grade 3-4 (450 mg QD (n=12)) | TRAE Dysgeusia, grade 3-4 (450 mg QD (n=12)) | TRAE Dyskinesia, any grade (450 mg QD (n=12)) | TRAE Dyskinesia, grade 3-4 (450 mg QD (n=12)) | TRAE Dysphonia, any grade (450 mg QD (n=12)) | TRAE Dysphonia, grade 3-4 (450 mg QD (n=12)) | TRAE Dyspnoea, any grade (450 mg QD (n=12)) | TRAE Dyspnoea, grade 3-4 (450 mg QD (n=12)) | TRAE Electrocardiogram QT prolonged, any grade (450 mg QD (n=12)) | TRAE Electrocardiogram QT prolonged, grade 3-4 (450 mg QD (n=12)) | TRAE Elevated ALT, grade 3-4 (450 mg QD (n=12)) | TRAE Elevated AST, grade 3-4 (450 mg QD (n=12)) | TRAE Elevated D dimer, any grade (450 mg QD (n=12)) | TRAE Elevated D dimer, grade 3-4 (450 mg QD (n=12)) | TRAE Elevated GGT, any grade (450 mg QD (n=12)) | TRAE Elevated GGT, grade 3-4 (450 mg QD (n=12)) | TRAE Elevated LDH, any grade (450 mg QD (n=12)) | TRAE Elevated LDH, grade 3-4 (450 mg QD (n=12)) | TRAE Elevated alpha-HBDH, any grade (450 mg QD (n=12)) | TRAE Elevated alpha-HBDH, grade 3-4 (450 mg QD (n=12)) | TRAE Elevated bilirubin, any grade (450 mg QD (n=12)) | TRAE Elevated bilirubin, grade 3-4 (450 mg QD (n=12)) | TRAE Elevated blood creatinine, grade 3-4 (450 mg QD (n=12)) | TRAE Elevated creatine phosphokinase, grade 3-4 (450 mg QD (n=12)) | TRAE Elevated serum urea, any grade (450 mg QD (n=12)) | TRAE Elevated serum urea, grade 3-4 (450 mg QD (n=12)) | TRAE Elevated troponin, grade 3-4 (450 mg QD (n=12)) | TRAE Genital rash, any grade (450 mg QD (n=12)) | TRAE Genital rash, grade 3-4 (450 mg QD (n=12)) | TRAE Haematuria, grade 3-4 (450 mg QD (n=12)) | TRAE Headache, any grade (450 mg QD (n=12)) | TRAE Headache, grade 3-4 (450 mg QD (n=12))
2 (16.7) n (%): TRAE Asthenia, any grade (450 mg QD (n=12)) | TRAE Decreased Ccr, any grade (450 mg QD (n=12)) | TRAE Decreased appetite, any grade (450 mg QD (n=12)) | TRAE Dry mouth, any grade (450 mg QD (n=12)) | TRAE Elevated blood creatinine, any grade (450 mg QD (n=12))
4 (100.0) n (%): TRAE PPE, any grade (400 mg BID (n=4))
3 (75.0) n (%): TRAE Elevated ALT, any grade (400 mg BID (n=4)) | TRAE Elevated AST, any grade (400 mg BID (n=4)) | TRAE PPE, grade 3-4 (400 mg BID (n=4))
1 (8.3) n (%): TRAE Activated partial thromboplastin time prolonged, any grade (450 mg QD (n=12)) | TRAE Anaemia, any grade (450 mg QD (n=12)) | TRAE Anaemia, grade 3-4 (450 mg QD (n=12)) | TRAE Arthralgia, any grade (450 mg QD (n=12)) | TRAE Blister, any grade (450 mg QD (n=12)) | TRAE Chronic kidney disease, any grade (450 mg QD (n=12)) | TRAE Diarrhoea, any grade (450 mg QD (n=12)) | TRAE Elevated creatine phosphokinase, any grade (450 mg QD (n=12)) | TRAE Elevated troponin, any grade (450 mg QD (n=12)) | TRAE Hyperhidrosis, any grade (450 mg QD (n=12))
3 (25.0) n (%): TRAE Dysgeusia, any grade (450 mg QD (n=12)) | TRAE Haematuria, any grade (450 mg QD (n=12))
2 (50.0) n (%): TRAE Elevated creatine phosphokinase, any grade (400 mg BID (n=4)) | TRAE Thrombocytopenia, any grade (400 mg BID (n=4))
